What was measured:
[1] = tested on: croton oil-induced granuloma; test: Test for croton oil-induced granuloma (air pouch exudate and thymus weight); format: in vivo, rat; conditions: male Wistar rats, 7 days, vs control group
Text: Using the croton oil granuloma test, which is a test method with which the local anti-inflammatory action and the systemic side effect can be evaluated at the same time, the pharmacological effect and the systemic side effect of the compounds of the present invention were studied.
Five individuals/group of male Wistar rats having body weights of 180 to 225 g were used, and hair on the back of these rats was shaved with a clipper under ether anesthesia, followed by preparing an air pouch by subcutaneous injection of 20 mL of air at the back. On the next day, 1 mL of cottonseed oil containing 1% croton oil was administered to the pouch. Each test drug was suspended in the croton oil-containing cottonseed oil before administration. Seven days later, blood was collected from abdominal aorta under ether anesthesia, and exudate in the pouch was collected and its fluid amount was measured. Further, the thymus was removed, and its weight was measured. The weight of the exudate and the weight of the thymus are shown in Table 2 as the suppression rate and the atrophy rate (%) with respect to those of the control group.

[2] = tested on: croton oil-induced ear edema; test: Test for croton oil-induced ear edema; format: in vivo; conditions: rat right auricle; for Edema suppression rate of 6 hours after administration of inflammatory agent (%): 6 hours after croton oil; for Edema suppression rate of 24 hours after administration of inflammatory agent (%): 24 hours after croton oil
Description: Croton oil ear edema test, which is a representative model for dermatitis, was used to study the pharmacological effect of compounds of the present invention.
Five individuals/group of rats of 5 weeks old (body weight, 128 g to 169 g) were used. One day before the test, the thickness of the right ear was measured under ether anesthesia using a dial thickness gauge, to obtain the Pre value. On the day of the test, 20 mg each of the ointments to be tested, which had been prepared to have various concentrations in white vaseline, was applied to the right auricle (both sides) of each rat, and a collar was then placed around the neck of the rat to prevent contacting/scratching and removal of the drug. Two hours later, the ointment was wiped off under ether anesthesia using absorbent cotton, and 0.1 mL of 5% croton oil (croton oil:ether:pyridine:distilled water=1:14:4:1) solution was applied dropwise to the both sides of the auricle while drying the solution with a drier (air blow), to induce ear edema. Six and 24 hours after the induction of the edema, the thickness of the right auricle was measured under ether anesthesia, and the edema rate and the edema suppression rate were calculated according to the equations below, which suppression rate is shown in Table 1.

Structure (SMILES) | Rate of exudates suppression (pharmacological effects) ([1]; dose 0.001 mg/rat into pouch) | Rate of thymus atrophy (systemic side effects) ([1]; dose 0.001 mg/rat into pouch) | Rate of exudates suppression (pharmacological effects) ([1]; dose 0.01 mg/rat into pouch) | Rate of thymus atrophy (systemic side effects) ([1]; dose 0.01 mg/rat into pouch) | Rate of exudates suppression (pharmacological effects) ([1]; dose 0.1 mg/rat into pouch) | Rate of thymus atrophy (systemic side effects) ([1]; dose 0.1 mg/rat into pouch) | Rate of exudates suppression (pharmacological effects) ([1]; dose 1 mg/rat into pouch) | Rate of thymus atrophy (systemic side effects) ([1]; dose 1 mg/rat into pouch) | Edema suppression rate of 6 hours after administration of inflammatory agent (%) ([2]; ointment concentration 0.001%) | Edema suppression rate of 24 hours after administration of inflammatory agent (%) ([2]; ointment concentration 0.001%) | Edema suppression rate of 6 hours after administration of inflammatory agent (%) ([2]; ointment concentration 0.01%) | Edema suppression rate of 24 hours after administration of inflammatory agent (%) ([2]; ointment concentration 0.01%) | Edema suppression rate of 6 hours after administration of inflammatory agent (%) ([2]; ointment concentration 0.1%) | Edema suppression rate of 24 hours after administration of inflammatory agent (%) ([2]; ointment concentration 0.1%)
CCCC1O[C@@H]2C[C@H]3[C@@H]4CCC5=CC(=O)C=C[C@]5(C)[C@H]4[C@@H](O)C[C@]3(C)[C@]2(C(=O)CO)O1 (stereo partly drawn) [Budesonide(R), reference compound] | 7.6% | 15.6% | 44.9% | 25.8% | 88.4% | 74.5% | 93.0% | 90.2% | – | – | – | – | – | –
CCCC1O[C@@H]2C[C@H]3[C@@H]4CCC5=CC(=O)C=C[C@]5(C)[C@H]4[C@@H](O)C[C@]3(C)[C@]2(C(=O)CO)O1 (stereo partly drawn) [Budesonide, budesonide, reference compound] | 10.8% | 7.3% | 66.9% | 17.7% | 91.6% | 74.5% | 94.3% | 87.5% | 11.8% | 7.6% | 32.3% | 33.5% | 48.1% | 45.1%
CC(C)C(=O)OCC(=O)[C@@]12O[C@H](C3CCCCC3)O[C@@H]1C[C@H]1[C@@H]3CCC4=CC(=O)C=C[C@]4(C)[C@H]3[C@@H](O)C[C@@]12C [Ciclesonide, ciclesonide, reference compound] | 62.8% | 6.0% | 93.5% | 13.0% | 93.0% | 23.6% | 92.6% | 84.4% | 9.1% | 9.4% | 30.3% | 24.5% | 49.4% | 43.5%
CC12C=CC(=O)C=C1CCC1C2C(O)CC2(C)C1CC1OC(C3CCCCC3)OC12C(=O)COC1OC(CO)C(O)C(O)C1O (stereo not drawn) [Compound 2] | – | – | – | – | – | – | – | – | 13.5% | 12.5% | 36.8% | 38.2% | 50.2% | 49.5%
CCC(=O)OCC1OC(OCC(=O)C23OC(C4CCCCC4)OC2CC2C4CCC5=CC(=O)C=CC5(C)C4C(O)CC23C)C(OC(=O)CC)C(OC(=O)CC)C1OC(=O)CC (stereo not drawn) [Compound 4] | 17.9% | 0.0% | 44.5% | 0.0% | 87.0% | 0.0% | 94.5% | 0.0% | 30.8% | 33.8% | 46.3% | 70.2% | 54.4% | 71.7%
CCCC(=O)OCC1OC(OCC(=O)C23OC(C4CCCCC4)OC2CC2C4CCC5=CC(=O)C=CC5(C)C4C(O)CC23C)C(OC(=O)CCC)C(OC(=O)CCC)C1OC(=O)CCC (stereo not drawn) [Compound 5] | 17.8% | 0.0% | 14.3% | 0.0% | 40.4% | 0.0% | 91.4% | 0.0% | 21.7% | 11.1% | 61.5% | 48.1% | 57.6% | 52.3%
CC(C)C(=O)OCC1OC(OCC(=O)C23OC(C4CCCCC4)OC2CC2C4CCC5=CC(=O)C=CC5(C)C4C(O)CC23C)C(OC(=O)C(C)C)C(OC(=O)C(C)C)C1OC(=O)C(C)C (stereo not drawn) [Compound 6] | 0.0% | 0.0% | 12.0% | 0.0% | 31.2% | 0.0% | 71.9% | 0.0% | 27.5% | 30.5% | 53.1% | 45.8% | 53.1% | 55.1%
CC12C=CC(=O)C=C1CCC1C2C(O)CC2(C)C1CC1OC(C3CCCCC3)OC12C(=O)COC1OC(COC=O)C(OC=O)C(OC=O)C1OC=O (stereo not drawn) [Compound 7] | 8.7% | 2.9% | 52.4% | 0.0% | 59.4% | 5.8% | 76.8% | 19.5% | 42.3% | 52.0% | 49.7% | 53.4% | 48.5% | 53.5%
CC12C=CC(=O)C=C1CCC1C2C(O)CC2(C)C1CC1OC(C3CCCCC3)OC12C(=O)COC1OC(COC(=O)c2ccco2)C(OC(=O)c2ccco2)C(OC(=O)c2ccco2)C1OC(=O)c1ccco1 (stereo not drawn) [Compound 8] | 19.1% | 0.0% | 42.1% | 0.0% | 78.0% | 0.0% | 95.0% | 0.5% | 24.2% | 25.9% | 36.0% | 40.1% | 33.4% | 49.6%
C[C@]12C=CC(=O)C=C1CC[C@@H]1[C@@H]2[C@@H](O)C[C@@]2(C)[C@H]1C[C@H]1O[C@@H](C3CCCCC3)O[C@]12C(=O)CO [desCIC, des-ciclesonide, reference compound] | 62.0% | 0.0% | 74.1% | 11.7% | 92.7% | 22.4% | 94.1% | 86.4% | – | – | – | – | – | –

— patent publication US8765696B2, “Steroid compound” (Mikasa Seiyaku Co., Ltd., priority 2009, dated 2014)
